Patent US20110020436A1 (priority 2006, published 2011)

Columns and labels:
[1] = tested on: COX-2; settings: macrophage cells after exposure to LPS; cited from earlier work
[2] = tested on: COX-1; settings: macrophage cells; cited from earlier work
[3] = tested on: stressed skin flaps; settings: animals with pineal glands removed, versus no melatonin; cited from earlier work
[4] = tested on: paw swelling and edema; settings: systemic melatonin after injection of a noxious stimulant; cited from earlier work
[5] = tested on: iNOS; settings: macrophage cells after exposure to LPS; cited from earlier work
[6] = Sleepiness side effect in the case subjects; type: in vivo, human; settings: topical application
Source text: This is probably due to either the local metabolism of melatonin or to the metabolism of melatonin in the liver, which is its primary site of metabolism (Slominski).

## COc1ccc2[nH]cc(CCNC(C)=O)c2c1 [melatonin, N-acetyl-5-methoxytryptamine]
[1]
  activation of COX-2: inhibits the activation
[2]
  COX-1 function: does not inhibit
[3]
  levels of MDA and nitric oxide: decreased levels
  levels of glutathione: increased levels
[4]
  swelling and edema of the paw: reduction of swelling and edema
[5]
  activation of iNOS: inhibits the activation
[6]
  sleepiness: no sleepiness
